Measured values taken from patent US12458021B2, “Microbiocidal derivatives” (SYNGENTA CROP PROTECTION AG, priority 2019, dated 2025).

Legend:
Alternaria solani = Alternaria solani / tomato / leaf disc (early blight); type: in vivo; details: foliar, tomato leaf disks cv. Baby, inoculated 2 days after application, assessed 5-7 days after application, read-out: control of Alternaria solani (percent disease control compared to untreated)
Method: Example B1: Alternaria solani/Tomato/Leaf Disc (Early Blight) Tomato leaf disks cv. Baby are placed on agar in multiwell plates (24-well format) and sprayed with the formulated test compound diluted in water. The leaf disks are inoculated with a spore suspension of the fungus 2 days after application. The inoculated leaf disks are incubated at 23° C./21° C. […] […]-185.

[1] = test system: Monographella nivalis (Microdochium nivale); assay: Monographella nivalis (Microdochium nivale) / liquid culture (foot rot cereals); type: cell-based; details: PDB potato dextrose broth, 24° C., 4-5 days after application, read-out: control of Monographella nivalis (inhibition of growth, photometric)
Outline: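 Growth inhibition measured by photometry 4-5 days post-application at 24° C. Compound was dispensed as DMSO solution, then PDB broth containing conidia from cryogenic storage was added.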

[2] = test system: Puccinia recondita f. sp. tritici; assay: Puccinia recondita f. sp. tritici / wheat / leaf disc preventative (brown rust); type: in vivo; details: foliar, wheat leaf segments cv. Kanzler, inoculated 1 day after application, assessed 7-9 days after application, read-out: control of Puccinia recondita f. sp. tritici, preventative (percent disease control compared to untreated)
Outline: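 Wheat leaf segments (cv. Kanzler) on agar were sprayed with formulated compound, then inoculated with spores 1 day later. Segments were incubated at 19 °C, 75% rh with 12 h light/dark. Percent disease control versus untreated was scored 7–9 days after application.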

[3] = test system: Puccinia recondita f. sp. tritici; assay: Puccinia recondita f. sp. tritici / wheat / leaf disc curative (brown rust); type: in vivo; details: foliar, wheat leaf segments cv. Kanzler, compound applied 1 day after inoculation, assessed 6-8 days after application, read-out: control of Puccinia recondita f. sp. tritici, curative (percent disease control compared to untreated)
Method: Example B10: Puccinia recondita f. sp. tritici/Wheat/Leaf Disc Curative (Brown Rust) Wheat leaf segments cv. Kanzler are placed on agar in multiwell plates (24-well format). The leaf segments are inoculated with a spore suspension of the fungus. Plates are stored in darkness at 19° C. and 75% rh. The formulated test compound diluted in water is applied 1 day after inoculation. […] […]-185.

[4] = test system: Blumeria graminis f. sp. tritici (Erysiphe graminis f. sp. tritici); assay: Blumeria graminis f. sp. tritici / wheat / leaf disc preventative (powdery mildew on wheat); type: in vivo; details: foliar, wheat leaf segments cv. Kanzler, inoculated 1 day after application, assessed 6-8 days after application, read-out: control of Blumeria graminis f. sp. tritici (percent disease control compared to untreated)
Text: Example B4: Blumeria graminis f. sp. tritici (Erysiphe graminis f. sp. tritici)/Wheat/Leaf Disc Preventative (Powdery Mildew on Wheat) Wheat leaf segments cv. Kanzler are placed on agar in a multiwell plate (24-well format) and sprayed with the formulated test compound diluted in water. The leaf disks are inoculated by shaking powdery mildew infected plants above the test plates 1 day after application. […] […]-192.

[5] = test system: Magnaporthe grisea (Pyricularia oryzae); assay: whole plant or invertebrate; type: in vivo; details: foliar, read-out: control of Magnaporthe grisea (percent disease control compared to untreated)
Pyrenophora teres = Pyrenophora teres / barley / leaf disc preventative (net blotch); type: in vivo; details: foliar, barley leaf segments cv. Hasso, inoculated 2 days after application, assessed 5-7 days after application, read-out: control of Pyrenophora teres (disease control compared to untreated)
Outline: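 Barley cv. Hasso leaf discs on agar were sprayed with diluted formulated compound, then inoculated with spore suspension 2 days later. Incubation at 20 °C, 65% rh, 12 h light/dark; disease control versus untreated assessed 5-7 days after application.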

[6] = test system: Mycosphaerella graminicola (Septoria tritici); assay: Mycosphaerella graminicola (Septoria tritici) / liquid culture (Septoria blotch); type: cell-based; details: Zymoseptoria tritici, PDB potato dextrose broth, 24° C., 4-5 days after application, read-out: control of Mycosphaerella graminicola (inhibition of growth, photometric)
Outline: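 Fungal growth inhibition was read photometrically 4-5 days after application. Compound was dosed from a DMSO solution into liquid cultures of spores in potato dextrose broth, incubated at 24° C.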

[7] = test system: Botryotinia fuckeliana (Botrytis cinerea); assay: Botryotinia fuckeliana (Botrytis cinerea) / liquid culture (gray mould); type: cell-based; details: Vogels broth, 24° C., 3-4 days after application, read-out: control of Botryotinia fuckeliana (inhibition of growth, photometric)
Outline: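 Botrytis cinerea conidia in Vogels broth were added to compound supplied as DMSO solution. Plates were incubated at 24 °C, and growth inhibition was read photometrically 3-4 days after application.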

[8] = test system: Glomerella lagenarium (Colletotrichum lagenarium); assay: Glomerella lagenarium (Colletotrichum lagenarium) / liquid culture (anthracnose); type: cell-based; details: Colletotrichum orbiculare, PDB potato dextrose broth, 24° C., 3-4 days after application, read-out: control of Glomerella lagenarium (inhibition of growth, photometric)
Outline: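 Fungal growth inhibition measured photometrically 3-4 days post-application at 24° C. Spores were mixed directly into potato dextrose broth and dispensed onto test compound supplied in DMSO.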

[9] = test system: Phaeosphaeria nodorum (Septoria nodorum); assay: Phaeosphaeria nodorum (Septoria nodorum) / wheat / leaf disc preventative (glume blotch); type: in vivo; details: Parastagonospora nodorum, foliar, wheat leaf segments cv. Kanzler, inoculated 2 days after application, assessed 5-7 days after application, read-out: control of Phaeosphaeria nodorum (percent disease control compared to untreated)
Outline: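 Wheat cv. Kanzler leaf discs on agar were sprayed with formulated compound diluted in water and inoculated with spores 2 days later. Discs were kept at 20° C, 75% rh, 12 h light/dark; percent disease control versus untreated was scored 5-7 days after application.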

[10] = test system: Mycosphaerella arachidis (Cercospora arachidicola); assay: Mycosphaerella arachidis (Cercospora arachidicola) / liquid culture (early leaf spot); type: cell-based; details: PDB potato dextrose broth, 24° C., 4-5 days after application, read-out: control of Mycosphaerella arachidis (inhibition of growth, photometric)
Outline: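 Conidia from cryogenic storage suspended in potato dextrose broth and added to compound in DMSO. Incubation at 24° C; growth inhibition read photometrically 4-5 days after application.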

Sclerotinia sclerotiorum = Sclerotinia sclerotiorum / liquid culture (cottony rot); type: cell-based; details: PDB potato dextrose broth, mycelia fragments, 24° C., 3-4 days after application, read-out: control of Sclerotinia sclerotiorum (inhibition of growth, photometric)
Method: Example B14: Sclerotinia sclerotiorum/Liquid Culture (Cottony Rot) Mycelia fragments of a newly grown liquid culture of the fungus are directly mixed into nutrient broth (PDB potato dextrose broth). After placing a (DMSO) solution of test compound into a microtiter plate (96-well format) the nutrient broth containing the fungal material is added. The test plates are incubated at 24° C. and the inhibition of growth is determined photometrically 3-4 days after application.

COc1ccc(Nc2cc(F)nc(F)c2)nc1C(=O)NC1(C(C)(C)C)CCC1 [Compound P-185, N-(1-tert-butylcyclobutyl)-6-[(2,6-difluoro-4-pyridyl)amino]-3-methoxy-pyridine-2-carboxamide]
≥ 80%: pest or weed control at 200 ppm (Alternaria solani) | inhibition at 20 ppm [1] | pest or weed control at 200 ppm [2] | pest or weed control at 200 ppm [3] | pest or weed control at 200 ppm [4] | pest or weed control at 200 ppm [5] | pest or weed control at 200 ppm (Pyrenophora teres) | inhibition at 20 ppm [6]

COc1ccc(Nc2cc(F)cc(F)c2)nc1C(=O)NC(C)(C)C [Compound P-93, N-tert-butyl-6-(3,5-difluoroanilino)-3-methoxy-pyridine-2-carboxamide]
≥ 80%: pest or weed control at 200 ppm (Alternaria solani) | inhibition at 20 ppm [1] | inhibition at 20 ppm [7] | pest or weed control at 200 ppm [2] | inhibition at 20 ppm [8] | pest or weed control at 200 ppm [9] | pest or weed control at 200 ppm [3] | pest or weed control at 200 ppm [4] | pest or weed control at 200 ppm [5] | pest or weed control at 200 ppm (Pyrenophora teres) | inhibition at 20 ppm [6] | inhibition at 20 ppm [10]

COc1ccc(Nc2ccnc(F)c2)nc1C(=O)NC(C)(C)C [Compound P-156, N-tert-butyl-6-[(2-fluoro-4-pyridyl)amino]-3-methoxy-pyridine-2-carboxamide]
≥ 80%: pest or weed control at 200 ppm [2] | inhibition at 20 ppm [8] | pest or weed control at 200 ppm [3] | pest or weed control at 200 ppm [4] | pest or weed control at 200 ppm [5]

COc1ccc(Nc2cc(F)nc(F)c2)nc1C(=O)NC1(C)CCC1 [Compound P-127, 6-[(2,6-difluoro-4-pyridyl)amino]-3-methoxy-N-(1-methylcyclobutyl)pyridine-2-carboxamide]
≥ 80%: pest or weed control at 200 ppm (Alternaria solani) | inhibition at 20 ppm [1] | pest or weed control at 200 ppm [2] | inhibition at 20 ppm [8] | pest or weed control at 200 ppm [3] | pest or weed control at 200 ppm [4] | pest or weed control at 200 ppm [5] | pest or weed control at 200 ppm (Pyrenophora teres) | inhibition at 20 ppm [6]

COc1ccc(Nc2cc(F)cc(F)c2)nc1C(=O)NC1(C)CCC1 [Compound P-118, 6-(3,5-difluoroanilino)-3-methoxy-N-(1-methylcyclobutyl)pyridine-2-carboxamide]
≥ 80%: pest or weed control at 200 ppm (Alternaria solani) | inhibition at 20 ppm [1] | inhibition at 20 ppm [7] | pest or weed control at 200 ppm [2] | inhibition at 20 ppm [8] | pest or weed control at 200 ppm [9] | pest or weed control at 200 ppm [3] | pest or weed control at 200 ppm [4] | pest or weed control at 200 ppm [5] | pest or weed control at 200 ppm (Pyrenophora teres) | inhibition at 20 ppm [6] | inhibition at 20 ppm [10]

COc1ccc(Nc2cc(F)nc(F)c2)nc1C(=O)NC1(C)CCCC1 [Compound P-109, 6-[(2,6-difluoro-4-pyridyl)amino]-3-methoxy-N-(1-methylcyclopentyl)pyridine-2-carboxamide]
≥ 80%: pest or weed control at 200 ppm (Alternaria solani) | inhibition at 20 ppm [1] | pest or weed control at 200 ppm [2] | inhibition at 20 ppm (Sclerotinia sclerotiorum) | inhibition at 20 ppm [8] | pest or weed control at 200 ppm [3] | pest or weed control at 200 ppm [4] | pest or weed control at 200 ppm [5] | pest or weed control at 200 ppm (Pyrenophora teres) | inhibition at 20 ppm [6]

COc1ccc(Nc2cc(F)nc(F)c2)nc1C(=O)NC1CCC1(C)C (stereo not drawn) [Compound P-4, 6-[(2,6-difluoro-4-pyridyl)amino]-N-(2,2-dimethylcyclobutyl)-3-methoxy-pyridine-2-carboxamide]
≥ 80%: pest or weed control at 200 ppm (Alternaria solani) | inhibition at 20 ppm [1] | pest or weed control at 200 ppm [2] | inhibition at 20 ppm (Sclerotinia sclerotiorum) | inhibition at 20 ppm [8] | pest or weed control at 200 ppm [9] | pest or weed control at 200 ppm [3] | pest or weed control at 200 ppm [4] | pest or weed control at 200 ppm [5] | pest or weed control at 200 ppm (Pyrenophora teres) | inhibition at 20 ppm [6]

COc1ccc(Nc2cc(F)nc(F)c2)nc1C(=O)NC(C)(C)C [Compound P-91, N-tert-butyl-6-[(2,6-difluoro-4-pyridyl)amino]-3-methoxy-pyridine-2-carboxamide]
≥ 80%: pest or weed control at 200 ppm (Alternaria solani) | inhibition at 20 ppm [1] | pest or weed control at 200 ppm [2] | inhibition at 20 ppm [8] | pest or weed control at 200 ppm [3] | pest or weed control at 200 ppm [4] | pest or weed control at 200 ppm [5] | inhibition at 20 ppm [6]

COc1ccc(Nc2cccc(F)c2)nc1C(=O)NCC(C)(C)C [Compound P-139, N-(2,2-dimethylpropyl)-6-(3-fluoroanilino)-3-methoxy-pyridine-2-carboxamide]
≥ 80%: pest or weed control at 200 ppm (Alternaria solani) | inhibition at 20 ppm [1] | inhibition at 20 ppm [7] | pest or weed control at 200 ppm [2] | inhibition at 20 ppm (Sclerotinia sclerotiorum) | inhibition at 20 ppm [8] | pest or weed control at 200 ppm [9] | pest or weed control at 200 ppm [4] | pest or weed control at 200 ppm [5] | pest or weed control at 200 ppm (Pyrenophora teres) | inhibition at 20 ppm [6] | inhibition at 20 ppm [10]
